Measured values as given in US20260315653A1, “ANTICOAGULANT COMPOSITIONS COMPRISING ANTI-PLATELET AND ANTI-INFLAMMATORY DRUGS AND METHODS AND DEVICES FOR THEIR USE” (Elixir Medical Corporation, priority 2023, published 2026).
Read-outs that look alike come from different tables or passages of the source. Each block holds one compound with its values, some of them ahead of it.

Columns and labels:
[1] = tested on: blood clotting (citrated sheep blood); assay: Activated clotting time (ACT) of EDTA or other anti-coagulant compounds in citrated sheep blood (Example 13)
Protocol: The activated clotting time (ACT) evaluation of anticoagulants was performed in Calcium-reconstituted sheep blood and recorded employing the Hemochron® Response device.
(§1) The ACT measurements were made in citrated sheep blood. 1.9 ml of citrated sheep blood was added to a test tube containing an activator (Hemochron@Celite@ ACT tubes, Lot F8FTE026 from Accriva Diagnostics, Inc.). A target amount of EDTA or other anti-coagulant compounds solution was then added into the test tube. The test tube was gently swirled so that the blood and EDTA or other anti-coagulant compounds was well-mixed. 0.1 ml of 0.3M calcium chloride was then added. The tube was gently shaken before being inserted into the Hemochron Response detector. The ACT read out was recorded and reported. The ACT of the control blood in the absence of any EDTA or other anti-coagulant compounds as first determined to establish a baseline. Then ACT was determined in the presence of different concentrations of EDTA or analogues as a single component.

[2] = tested on: blood clotting (citrated sheep blood); assay: Net activated clotting time (net ACT) in citrated sheep blood (Examples 3-5); design: key: seconds; measured ACT minus blood control ACT (165 s); settings: single drug, blood control 165 seconds
Protocol: The activated clotting time (ACT) evaluation of anticoagulants was performed in calcium citrate sheep blood and recorded employing the Hemochron® Response device. The ACT measurements were made in citrated sheep blood. 1.9 ml of citrated sheep blood was added to a test tube containing an activator (Hemochron@Celite@ ACT tubes, Lot F8FTE026 from Accriva Diagnostics, Inc.). A target amount of drug solution was then added into the test tube. The test tube was gently swirled so that the blood and drug were well-mixed. 0.1 ml of 0.3M calcium chloride was then added. The tube was gently shaken before being inserted into the Hemochron Response detector. The ACT read out was recorded and reported. The ACT of the control blood in the absence of any drug as first determined to establish a baseline. Here the blood control measured is 165 seconds. Then ACT was determined in the presence of different concentrations of the drug as a single component. In the following study, the net ACT (measured ACT minus blood control ACT) was utilized to visualize the synergistic effect of direct factor Xa inhibitor (Rivaroxaban) and direct factor IIa inhibitor (Argatroban) drug combinations. The figures are presented in ng/mg wherein the density of blood and tissue are approximately the same.
Example 4 is the continuation of example 3, which employed the same method as in example 3. The only difference is that the direct factor Xa inhibitor Edoxaban is used in place of direct factor Xa inhibitor Rivaroxaban.
Example 5 is the continuation of example 3, which employed the same method as in example 3. The only difference is that the direct factor Xa inhibitor Betrixaban is used in place of direct factor Xa inhibitor Rivaroxaban.

[3] = tested on: blood clotting (heparinized sheep blood); assay: Net ACT initiated by platelet activation factor (PAF) and CaCl2 in heparinized sheep blood (Examples 6-11)
Protocol: In order to examine the potential synergistic effects between anti-inflammatory agents, direct factor Xa inhibitors, direct factor IIa inhibitors, antiplatelets (P2Y12 inhibitor and glycoprotein IIb/IIIa inhibitor, platelet activation factor and CaCl2 were utilized by measuring ACT. Heparinized sheep blood was used to preserve platelet function.
The activated clotting time (ACT) evaluation initiated by platelet activation factor (PAF) and calcium chloride (CaCl2) was performed in heparinized sheep blood and recorded employing the Hemochron® Response device. […] A target amount of drug solution was then added into the test tube. The test tube was gently swirled so that the blood and drug were well-mixed. […] The tube was gently shaken before being inserted into the Hemochron Response detector. The ACT read out was recorded and reported. The ACT of the control heparinized sheep blood in the absence of any drug as first measured to establish a baseline. […] Then ACT was measured in the presence of different concentrations of the drug measured. Selected drug combinations were then tested to evaluate for potential synergy in action between the drug combination. The net ACT (ACT minus blood control ACT) was utilized to visualize the synergistic effect. […] The figures are presented in ng/mg wherein the density of blood and tissue are approximately the same.

[4] = tested on: blood clotting (fresh pig blood); assay: Activated clotting time (ACT) of EDTA or analogues in fresh pig blood (Example 12); settings: for Increase in clotting time compared to control: control 154 sec; for blood coagulation compared to the blood control: EDTA 200 ng/mg, sodium salts 300 ng/mg
Protocol: The activated clotting time (ACT) evaluation of EDTA or analogues was performed in fresh pig blood and recorded employing the Hemochron® Response device.
as §1, with “fresh pig” for “citrated sheep”, “1.0” for “1.9”, “drug” for “EDTA or other anti-coagulant compounds”

[5] = pH of 1 mg/ml EDTA or analogue in water or phosphate buffer; assay type: physicochemical
Description: Based on the pH of EDTA or analogues in water and in 0.1M phosphate buffered saline as show in Table 2, EDTA disodium salt or dipotassium salt has a pH close to neutral pH in human body (6.42-6.92), whereas EDTA tetrasodium or trisodium has a very basic pH (>8.0) in human body. EDTA disodium or dipotassium is preferred in the examples.

[6] = as above; assay type: physicochemical; settings: 1 mg/ml in 0.01 M pH 7.4 phosphate buffer, 21.8-22.3 ° C.
[7] = tested on: porcine coronary artery; assay: In vivo porcine coronary stent implantation: fibrin score and late lumen loss (Examples 25-26); settings: Table 9, day 7
Protocol: The drug eluting stent systems containing different anticoagulants prepared as described in Example 11 were evaluated at 3 hours, 6 hours, 1 day, 3 days, 6 days, 7 days, or 28 days following implantation in a porcine coronary artery model.
The porcine model was chosen as this model has been used extensively for stent and angioplasty studies resulting in a large volume of data on the vascular response properties and its correlation to human vascular response (Schwartz et al, Circulation. 2002; 106:1867 1873). The animals were housed and cared for in accordance with the Guide for the Care and Use of Laboratory Animals as established by the National Research Council.
After induction of anesthesia, the left or right femoral artery was accessed using standard techniques and an arterial sheath was introduced and advanced into the artery. Vessel angiography was performed under fluoroscopic guidance, a 7 Fr. guide catheter was inserted through the sheath and advanced to the appropriate location where intracoronary nitroglycerin was administered. An appropriate implantation segment of coronary artery was randomly selected and a 0.014″ guidewire inserted. Quantitative Coronary Angiography (QCA) was performed to document the results. The appropriately size stent was advanced to the deployment site. The balloon was inflated at a steady rate to a pressure sufficient to achieve a balloon to artery ratio of approximately 1.1 to 1.0.
Follow up angiography was performed at the designated timepoint for each of the animals. Late lumen loss (LLL) can be expressed as: […]
The LLL is an indicator of the amount smooth muscle cell (SMC) proliferation or inhibition. It is used to measure efficacy between drugs for SMC proliferation inhibition. The smaller the LLL, the better the efficacy of the drug.
Stented portions of coronary arteries were embedded in methyl methacrylate (MMA), then divided into a target of at least three blocks of approximately similar lengths for histology evaluation. Quantitative histopathological evaluation of stented artery sections was then performed and scored as indicated. For Fibrin formation, scores ranged from 0 to 3, with a score of 0 indicating absent or rare minimal spotting around struts of the stent, a score of 1 indicating the presence of fibrin in small amounts localized only around the struts, a score of 2 indicating the moderately abundant or denser presence of fibrin around and extending beyond the struts, and a score of 3 indicating the presence of abundant and dense fibrin and/or bridging of the fibrin between the struts. The mean score was calculated and reported. The mean of each section was then averaged to provide a mean fibrin score per stent. The smaller the fibrin score, the better efficacy.

[8] = 167 ng/mg, blood control 202 sec
[9] = 1 mg/ml in d-water, 21.8-22.0 ° C.
[10] = single drug, 0.05 ng/mg, PAF & CaCl2, blood control 235 seconds

Compound: CCCCCCCCCCCCCC[N+](C)(C)Cc1ccccc1.[Cl-] [Benzyldimethyltetradecyl-ammonium chloride]
Clotting time (ACT) ([1]; 67 ng/mg): 316 s
Increase in clotting time compared to control ([1]; 67 ng/mg): 114 s
Clotting time (ACT) ([1]; 100 ng/mg): 421 s
Increase in clotting time compared to control ([1]; 100 ng/mg): 219 s
Clotting time (ACT) ([1]; 133 ng/mg): 983 s
Increase in clotting time compared to control ([1]; 133 ng/mg): 781 s
Clotting time (ACT) [1, 8]: 1370 s
Increase in clotting time compared to control [1, 8]: 1168 s

Compound: COc1ccc(NC(=O)c2ccc(C(=N)N(C)C)cc2)c(C(=O)Nc2ccc(Cl)cn2)c1 [Betrixaban]
net ACT ([2]; 0.3 ng/mg): 21

Compound: COc1cc2c(c(OC)c1OC)-c1ccc(OC)c(=O)cc1[C@@H](NC(C)=O)CC2 [Colchicine]
net ACT [3]: 41 s

Compound: O=C(O)C(S)C(S)C(=O)O (stereo not drawn) [Dimercaptosuccinic acid (DMSA), Dimercaptosuccinic acid]
Clotting time (ACT) ([4]; 200 ng/mg): 151 s
Increase in clotting time compared to control ([4]; 200 ng/mg): -3 s

pH [5, 9]: 6.25
pH ([5]; in water and phosphate buffered saline, listed as dipotassium salt): 6.42-6.92
pH [6]: 6.93
Compound: O=C(O)CN(CCN(CC(=O)O)CC(=O)O)CC(=O)O [EDTA dipotassium]

Compound: CC(=O)OCOC(=O)CN(CCN(CC(=O)OCOC(C)=O)CC(=O)OCOC(C)=O)CC(=O)OCOC(C)=O [EDTA tetra acetoxymethyl ester]
Clotting time (ACT) ([4]; 500 ng/mg): 158 s
Increase in clotting time compared to control ([4]; 500 ng/mg): 4 s

pH [5, 9]: 9.21
pH ([5]; in water and phosphate buffered saline): > 8.0
pH [6]: 7.77
Compound: O=C(O)CN(CCN(CC(=O)O)CC(=O)O)CC(=O)O [EDTA tri sodium]

Compound: O=C(O)CN(CCN(CC(=O)O)CC(=O)O)CC(=O)O [EDTA, ethylenediaminetetraacetic acid]
Clotting time (ACT) ([4]; 75 ng/mg): 179 s
Increase in clotting time compared to control ([4]; 75 ng/mg): 25 s
Clotting time (ACT) ([4]; 100 ng/mg): 247 s
Increase in clotting time compared to control ([4]; 100 ng/mg): 93 s
Clotting time (ACT) ([4]; 150 ng/mg): 275 s
Increase in clotting time compared to control ([4]; 150 ng/mg): 121 s
Clotting time (ACT) ([4]; 200 ng/mg): >500 s
Increase in clotting time compared to control ([4]; 200 ng/mg): >346 s
blood coagulation compared to the blood control [4]: significant delayed blood coagulation

pH ([5]; 1 mg/ml in d-water, 21.8-22.0 ° C., listed as EDTA disodium): 6.42
pH ([5]; in water and phosphate buffered saline, listed as EDTA disodium salt): 6.42-6.92
pH ([6]; listed as EDTA disodium): 6.92
Compound: O=C(O)CN(CCN(CC(=O)O)CC(=O)O)CC(=O)O [EDTA•2Na•2H2O]
Clotting time (ACT) ([4]; 100 ng/mg): 191 s
Increase in clotting time compared to control ([4]; 100 ng/mg): 37 s
Clotting time (ACT) ([4]; 200 ng/mg): 264 s
Increase in clotting time compared to control ([4]; 200 ng/mg): 110 s
Clotting time (ACT) ([4]; 300 ng/mg): 374 s
Increase in clotting time compared to control ([4]; 300 ng/mg): 220 s
blood coagulation compared to the blood control ([4]; listed as EDTA disodium salt): The same trend

Compound: CN1CCc2nc(C(=O)N[C@@H]3C[C@@H](C(=O)N(C)C)CC[C@@H]3NC(=O)C(=O)Nc3ccc(Cl)cn3)sc2C1 [Edoxaban]
net ACT ([2]; 0.15 ng/mg): 42
net ACT ([2]; 0.3 ng/mg): 87

Compound: CCCSc1nc(N[C@@H]2C[C@H]2c2ccc(F)c(F)c2)c2nnn([C@@H]3C[C@H](OCCO)[C@@H](O)[C@H]3O)c2n1 [Ticagrelor]
net ACT [3, 10]: 18 s

Compound: CCCCS(=O)(=O)N[C@@H](Cc1ccc(OCCCCC2CCNCC2)cc1)C(=O)O [Tirofiban]
net ACT [3, 10]: 9 s

Compound: Dalteparin
LLL / smooth muscle cell proliferation compared to bare metal control stents [7]: larger LLLs compared to control
inhibition of fibrin formation compared to bare metal control stents [7]: not effective at inhibiting fibrin formation
